Assay results reported in ChEMBL document CHEMBL1909046, “DrugMatrix in vitro pharmacology data”.

Legend:
[1] = biological target: T1, Angiotensin-converting enzyme (Oryctolagus cuniculus, UniProt P12822); format: tissue-based, Lung;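 further: enzymatic inhibition of angiotensin-converting enzyme measured with FAPGG as the substrate; in other assays of this panel Not Active means under 50% inhibition at 10 µM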
T1 sequence (P12822 whole entry): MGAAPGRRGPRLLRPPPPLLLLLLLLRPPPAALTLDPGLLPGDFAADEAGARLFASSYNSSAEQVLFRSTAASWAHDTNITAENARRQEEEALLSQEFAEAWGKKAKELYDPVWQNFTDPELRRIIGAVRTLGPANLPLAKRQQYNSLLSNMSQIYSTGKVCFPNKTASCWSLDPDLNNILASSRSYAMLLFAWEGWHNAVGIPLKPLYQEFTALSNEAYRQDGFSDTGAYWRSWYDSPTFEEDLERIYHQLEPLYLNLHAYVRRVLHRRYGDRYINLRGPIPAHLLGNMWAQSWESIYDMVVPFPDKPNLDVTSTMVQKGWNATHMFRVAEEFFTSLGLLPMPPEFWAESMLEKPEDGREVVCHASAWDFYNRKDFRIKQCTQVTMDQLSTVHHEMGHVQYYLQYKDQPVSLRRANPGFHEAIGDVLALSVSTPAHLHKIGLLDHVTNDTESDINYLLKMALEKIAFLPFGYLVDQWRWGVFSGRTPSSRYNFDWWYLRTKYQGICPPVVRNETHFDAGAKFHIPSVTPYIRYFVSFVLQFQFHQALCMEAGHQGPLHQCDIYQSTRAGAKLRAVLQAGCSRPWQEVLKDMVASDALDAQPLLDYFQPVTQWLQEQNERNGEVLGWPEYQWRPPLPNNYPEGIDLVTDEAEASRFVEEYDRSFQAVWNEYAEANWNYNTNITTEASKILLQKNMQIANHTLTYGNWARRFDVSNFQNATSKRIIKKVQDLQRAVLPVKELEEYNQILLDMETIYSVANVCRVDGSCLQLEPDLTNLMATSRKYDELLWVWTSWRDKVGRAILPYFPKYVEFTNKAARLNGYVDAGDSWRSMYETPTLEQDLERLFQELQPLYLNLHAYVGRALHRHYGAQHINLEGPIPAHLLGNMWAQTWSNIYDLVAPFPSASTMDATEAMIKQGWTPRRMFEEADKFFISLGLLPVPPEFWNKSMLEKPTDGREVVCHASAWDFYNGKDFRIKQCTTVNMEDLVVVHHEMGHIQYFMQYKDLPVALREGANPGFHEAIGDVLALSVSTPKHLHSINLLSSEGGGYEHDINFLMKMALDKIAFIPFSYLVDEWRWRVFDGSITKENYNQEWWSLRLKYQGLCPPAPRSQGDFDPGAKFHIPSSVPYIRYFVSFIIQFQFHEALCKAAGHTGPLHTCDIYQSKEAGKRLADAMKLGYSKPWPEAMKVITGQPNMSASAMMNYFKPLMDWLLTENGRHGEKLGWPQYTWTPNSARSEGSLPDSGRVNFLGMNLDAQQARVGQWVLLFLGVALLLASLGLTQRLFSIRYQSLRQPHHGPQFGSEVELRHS

Endothelin-1 receptor = biological target: T2, Endothelin-1 receptor (Homo sapiens, UniProt P25101); format: cell membranes, CHO-K1, Membrane; settings: cho-k1; further: in other assays of this panel Not Active means under 50% inhibition at 10 µM
T2 sequence (P25101 whole entry): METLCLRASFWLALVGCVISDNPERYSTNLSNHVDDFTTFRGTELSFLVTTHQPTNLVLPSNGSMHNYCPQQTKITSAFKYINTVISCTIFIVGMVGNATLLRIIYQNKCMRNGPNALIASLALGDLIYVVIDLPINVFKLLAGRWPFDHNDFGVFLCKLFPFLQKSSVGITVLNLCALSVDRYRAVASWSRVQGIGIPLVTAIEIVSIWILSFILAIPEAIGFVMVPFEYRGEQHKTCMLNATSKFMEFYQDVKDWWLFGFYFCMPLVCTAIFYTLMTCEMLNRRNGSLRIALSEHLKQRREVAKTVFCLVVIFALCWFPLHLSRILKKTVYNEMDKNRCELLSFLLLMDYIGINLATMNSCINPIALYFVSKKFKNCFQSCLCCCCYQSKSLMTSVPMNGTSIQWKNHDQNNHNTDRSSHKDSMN

[2] = biological target: Matrix metalloproteinase-9 (Homo sapiens, UniProt P14780); experiment: biochemical; format: cell-based;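 further: inhibition of isolated MMP-9 enzyme activity toward a synthetic peptide substrate, from the DrugMatrix protease screening panel; in other assays of this panel Not Active means under 50% inhibition at 10 µM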
Matrix metalloproteinase-9, sequence (P14780 whole entry): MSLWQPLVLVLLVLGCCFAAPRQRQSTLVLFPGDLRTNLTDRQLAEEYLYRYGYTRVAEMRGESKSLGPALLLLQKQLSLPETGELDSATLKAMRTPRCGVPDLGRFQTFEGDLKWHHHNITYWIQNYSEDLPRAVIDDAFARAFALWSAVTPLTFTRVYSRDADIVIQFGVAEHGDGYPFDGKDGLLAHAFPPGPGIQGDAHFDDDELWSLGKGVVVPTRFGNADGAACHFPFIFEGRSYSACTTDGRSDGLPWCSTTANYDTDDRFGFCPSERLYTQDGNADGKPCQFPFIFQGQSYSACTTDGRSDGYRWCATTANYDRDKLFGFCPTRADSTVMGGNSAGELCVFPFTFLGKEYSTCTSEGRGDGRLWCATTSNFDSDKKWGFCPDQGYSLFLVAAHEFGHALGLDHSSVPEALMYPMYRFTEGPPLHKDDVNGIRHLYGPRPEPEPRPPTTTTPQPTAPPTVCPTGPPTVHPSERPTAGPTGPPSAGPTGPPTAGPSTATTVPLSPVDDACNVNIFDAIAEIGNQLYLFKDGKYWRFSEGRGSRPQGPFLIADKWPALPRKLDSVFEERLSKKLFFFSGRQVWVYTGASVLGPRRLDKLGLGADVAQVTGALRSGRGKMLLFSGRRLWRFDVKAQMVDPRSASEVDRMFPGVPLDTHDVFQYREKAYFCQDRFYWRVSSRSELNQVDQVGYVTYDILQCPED

[3] = biological target: Kappa-type opioid receptor (Homo sapiens, UniProt P41145); experiment: DRUGMATRIX: Opiate kappa (OP2, KOP) radioligand binding (ligand: [3H] Diprenorphine); format: cell membranes, HEK293, Membrane; settings: hek293; Not Active = under 50% inhibition at 10 µM
Kappa-type opioid receptor, sequence (P41145 whole entry): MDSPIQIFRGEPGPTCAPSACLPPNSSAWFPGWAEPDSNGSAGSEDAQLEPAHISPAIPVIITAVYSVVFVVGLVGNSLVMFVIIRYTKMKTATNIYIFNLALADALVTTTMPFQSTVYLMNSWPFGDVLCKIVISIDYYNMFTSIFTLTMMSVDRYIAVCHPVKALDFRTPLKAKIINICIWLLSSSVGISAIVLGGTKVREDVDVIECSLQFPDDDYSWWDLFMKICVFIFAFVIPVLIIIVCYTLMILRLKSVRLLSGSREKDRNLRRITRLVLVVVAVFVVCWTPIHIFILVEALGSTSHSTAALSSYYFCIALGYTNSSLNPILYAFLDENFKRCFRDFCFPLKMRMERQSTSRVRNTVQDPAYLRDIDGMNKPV

[4] = biological target: T3, 3-hydroxy-3-methylglutaryl-coenzyme A reductase (Homo sapiens, UniProt P04035); set-up: species or system Escherichia coli;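 further: enzyme inhibition assay of HMG-CoA reductase using radiolabeled [14C]HMG-CoA as substrate; in other assays of this panel Not Active means under 50% inhibition at 10 µM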
T3 sequence (P04035 whole entry): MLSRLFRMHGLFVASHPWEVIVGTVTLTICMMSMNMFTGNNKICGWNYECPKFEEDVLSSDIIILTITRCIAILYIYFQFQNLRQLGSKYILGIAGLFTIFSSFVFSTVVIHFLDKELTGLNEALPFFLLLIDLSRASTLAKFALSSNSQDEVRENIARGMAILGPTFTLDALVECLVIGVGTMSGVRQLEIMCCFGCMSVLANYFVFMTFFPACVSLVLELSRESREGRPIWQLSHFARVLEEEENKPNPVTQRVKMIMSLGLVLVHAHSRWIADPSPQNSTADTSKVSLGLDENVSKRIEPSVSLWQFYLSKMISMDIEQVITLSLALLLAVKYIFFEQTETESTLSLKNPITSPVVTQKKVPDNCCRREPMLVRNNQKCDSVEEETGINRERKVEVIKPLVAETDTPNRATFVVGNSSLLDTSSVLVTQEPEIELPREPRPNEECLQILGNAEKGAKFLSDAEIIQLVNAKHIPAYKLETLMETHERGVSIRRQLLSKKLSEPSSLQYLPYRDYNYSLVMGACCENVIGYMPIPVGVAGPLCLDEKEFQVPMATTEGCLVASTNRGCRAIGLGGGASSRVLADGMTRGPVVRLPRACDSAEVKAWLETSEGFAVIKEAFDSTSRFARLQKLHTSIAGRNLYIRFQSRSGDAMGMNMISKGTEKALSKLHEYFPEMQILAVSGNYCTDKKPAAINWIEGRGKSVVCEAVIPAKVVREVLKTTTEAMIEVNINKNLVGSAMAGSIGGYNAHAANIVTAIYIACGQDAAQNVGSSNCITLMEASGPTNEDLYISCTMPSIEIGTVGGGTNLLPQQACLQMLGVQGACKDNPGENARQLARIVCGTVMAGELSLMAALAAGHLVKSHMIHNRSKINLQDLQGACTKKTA

[5] = biological target: 5-hydroxytryptamine receptor 2B (Homo sapiens, UniProt P41595); format: cell membranes, CHO-K1, Membrane; further: in other assays of this panel Not Active means under 50% inhibition at 10 µM
5-hydroxytryptamine receptor 2B, sequence (P41595 whole entry): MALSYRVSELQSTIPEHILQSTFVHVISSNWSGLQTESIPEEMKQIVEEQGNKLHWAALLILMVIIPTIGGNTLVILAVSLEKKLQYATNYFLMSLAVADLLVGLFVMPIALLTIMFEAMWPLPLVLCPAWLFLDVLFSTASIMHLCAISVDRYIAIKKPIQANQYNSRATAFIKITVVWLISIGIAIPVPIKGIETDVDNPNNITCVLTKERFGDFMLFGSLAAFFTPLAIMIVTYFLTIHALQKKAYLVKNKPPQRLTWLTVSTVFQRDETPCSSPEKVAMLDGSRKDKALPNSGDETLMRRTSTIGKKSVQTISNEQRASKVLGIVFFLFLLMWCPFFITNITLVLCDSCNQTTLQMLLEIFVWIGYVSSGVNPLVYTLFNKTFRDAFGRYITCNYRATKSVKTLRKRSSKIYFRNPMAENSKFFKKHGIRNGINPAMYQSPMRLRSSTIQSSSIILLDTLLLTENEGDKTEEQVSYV

Cytochrome P450 2C19 = Cytochrome P450 2C19 (Homo sapiens, UniProt P33261); settings: bti-tn-5b1-4; further: in other assays of this panel Not Active means under 50% inhibition at 10 µM
Cytochrome P450 2C19, sequence (P33261 whole entry): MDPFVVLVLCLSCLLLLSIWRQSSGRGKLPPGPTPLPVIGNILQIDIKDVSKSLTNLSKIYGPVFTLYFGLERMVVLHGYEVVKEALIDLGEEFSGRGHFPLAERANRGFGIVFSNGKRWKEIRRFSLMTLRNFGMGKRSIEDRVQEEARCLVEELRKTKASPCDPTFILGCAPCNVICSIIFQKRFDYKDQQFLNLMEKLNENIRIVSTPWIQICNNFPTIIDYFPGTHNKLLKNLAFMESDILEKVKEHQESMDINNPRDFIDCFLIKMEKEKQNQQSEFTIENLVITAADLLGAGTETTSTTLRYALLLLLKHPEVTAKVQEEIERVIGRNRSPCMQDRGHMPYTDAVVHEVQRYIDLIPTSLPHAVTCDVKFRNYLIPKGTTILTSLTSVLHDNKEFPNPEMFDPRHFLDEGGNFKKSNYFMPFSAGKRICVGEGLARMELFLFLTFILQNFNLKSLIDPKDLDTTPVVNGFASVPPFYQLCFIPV

Row | Compound | IC50 [1] | IC50 (Endothelin-1 receptor) | IC50 [2] | IC50 [3] | IC50 [4] | IC50 ([5]; cho-k1) | IC50 (Cytochrome P450 2C19) | Ki (Cytochrome P450 2C19) | IC50 ([5]; read-out: IC50) | Ki ([5]; read-out: Ki) | Ki [1] | Ki (Endothelin-1 receptor) | Ki ([5]; cho-k1) | Ki [2] | Ki [4]
1 | CCOC(=O)N1CCC(=C2c3ccc(Cl)cc3CCc3cccnc32)CC1 [LORATADINE] | Not Active | Not Active | Not Active | Not Active | Not Active |  |  |  |  |  |  |  |  |  | 
2 | Cn1ccnc1S [METHIMAZOLE] | Not Active | Not Active | Not Active | Not Active | Not Active | Not Active | Not Active | Not Active |  |  |  |  |  |  | 
3 | CC[C@@H](CO)NC(=O)[C@@H]1C=C2c3cccc4[nH]cc(c34)C[C@H]2N(C)C1 [METHYLERGONOVINE] | Not Active | Not Active | Not Active |  | Not Active |  |  |  | 0.00151 µM | 0.000958 µM |  |  |  |  | 
4 | COc1nc(C)nc(Cl)c1NC1=NCCN1 [MOXONIDINE] | Not Active | Not Active | Not Active | Not Active | Not Active | Not Active | Not Active | Not Active |  |  |  |  |  |  | 
5 | COc1c(C)c2c(c(O)c1C/C=C(\C)CCC(=O)O)C(=O)OC2 [MYCOPHENOLIC ACID] | Not Active | Not Active | Not Active | Not Active | Not Active | Not Active | Not Active | Not Active |  |  |  |  |  |  | 
6 | CN1CCN(CCCN2c3ccccc3Sc3ccc(Cl)cc32)CC1 [PROCHLORPERAZINE] | Not Active | Not Active | Not Active | Not Active | Not Active |  | Not Active | Not Active |  |  |  |  |  |  | 
7 | Nc1nc2ccc(OC(F)(F)F)cc2s1 [RILUZOLE] | Not Active | Not Active | Not Active | Not Active | Not Active | Not Active |  |  |  |  |  |  |  |  | 
8 | Cc1nc2n(c(=O)c1CCN1CCC(c3noc4cc(F)ccc34)CC1)CCCC2 [RISPERIDONE] | Not Active | Not Active | Not Active | Not Active | Not Active |  | Not Active | Not Active |  |  |  |  |  |  | 
9 | Cc1noc(NS(=O)(=O)c2ccc(N)cc2)c1C [SULFISOXAZOLE] | Not Active |  | Not Active | Not Active | Not Active | Not Active | Not Active | Not Active |  |  |  |  |  |  | 
10 | Cc1cccc(N(C)C(=S)Oc2ccc3ccccc3c2)c1 [TOLNAFTATE] | Not Active | Not Active | Not Active | Not Active | Not Active |  |  |  | 2.01 µM | 1.28 µM |  |  |  |  | 
11 | SODIUM NITROPRUSSIDE | Not Active | Not Active | Not Active |  | Not Active | Not Active | Not Active | Not Active |  |  | Not Active | Not Active | Not Active | Not Active | Not Active
